In the assay the test system is methicillin-sensitive Staphyloccocus aureus (MSSA) pneumonia after haemorrhagic shock. The assay is described as follows: Mortality from MSSA pneumonia after haemorrhagic shock (post-haemorrhagic SI model). Type of assay: in vivo. Particulars: Balb/cJ mice; i.v. injection immediately after resuscitation from haemorrhagic shock; 7×10^6 CFU MSSA 24 h later; survival followed 7 days. The protocol: An intra-venous injection of CpG-ODN 1668 (100 μl to […]) (HP-CpG group) or the same volume of isotonic saline solution (HP group) was given immediately after resuscitation from haemorrhagic shock. Twenty-four hours later the mice were inoculated with 7×10^6 CFU of MSSA. The survival rate of each group was measured twice a day for 7 days (168 hours). Each group comprised 8 animals. Data are given as a percentage and are representative of three independent experiments each having the same statistical significance (*p≦0.05). HP Group (black diamonds), HP-CpG group (blank squares).
Male Balb/cJ mice (20-24 grams) were obtained from the Janvier breeding company (Laval, France). Mice were kept on a day/night cycle of 12 hours with free access to food and drink. […]
A strain of methicillin-sensitive Staphyloccocus aureus or <<MSSA>> (ATCC strain 29213) was cultured 16 hours at 37° C. in a tryptic soy medium (Grosseron, Saint Herblain, France). […] The bacterial concentration was systematically controlled by quantitative culture. […]
Mortality was assessed twice a day for 7 days. […] Capillary glycaemia was measured using a haemaglucotest (Boehringer Ingelheim France), Venous blood gasometry, reflecting shock intensity and quality of resuscitation, was measured on central venous blood taken from the right atrium.

Consider monophosphoryl lipid A [MPLA], for which the “mortality in post-haemorrhagic SI model with MSSA pneumonia” value is on record as “significantly lowered mortality”.

Source of the values: patent US8636979B2, “TLR 4 and 9 receptors agonists for preventing septic complications of post-traumatic immunodepression in patients hospitalized for severe traumatic injuries” (Chu Nantes, priority 2009, dated 2014).
